{"source": "patent US20120184532A1", "about": "(priority 2009, published 2012)", "key": {"[1]": {"biological_target": "T1, Acetylcholinesterase (h), human recombinant (HEK-293 cells) (Homo sapiens, UniProt P22303)", "T1 construct": "host or cells: HEK-293 cells", "T1 sequence (P22303 32-614)": "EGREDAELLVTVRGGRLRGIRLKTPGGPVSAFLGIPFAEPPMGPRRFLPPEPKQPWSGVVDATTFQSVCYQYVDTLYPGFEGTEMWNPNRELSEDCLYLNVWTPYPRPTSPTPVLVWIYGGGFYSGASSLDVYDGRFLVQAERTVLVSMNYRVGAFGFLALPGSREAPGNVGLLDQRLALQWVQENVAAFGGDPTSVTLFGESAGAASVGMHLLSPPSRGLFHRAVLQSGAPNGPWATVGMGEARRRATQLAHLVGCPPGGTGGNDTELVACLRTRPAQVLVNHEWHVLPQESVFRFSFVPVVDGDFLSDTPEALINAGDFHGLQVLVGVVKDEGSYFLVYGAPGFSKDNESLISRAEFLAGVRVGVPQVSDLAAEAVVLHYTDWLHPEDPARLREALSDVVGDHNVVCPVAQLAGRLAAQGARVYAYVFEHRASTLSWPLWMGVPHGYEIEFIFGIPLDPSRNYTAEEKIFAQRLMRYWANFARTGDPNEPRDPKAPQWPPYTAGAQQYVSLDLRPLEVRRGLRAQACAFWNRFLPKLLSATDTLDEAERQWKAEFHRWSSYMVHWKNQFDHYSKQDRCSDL", "assay": "In vitro human acetylcholine esterase inhibition", "type": "biochemical", "conditions": "in contrast to galantamine"}, "[2]": {"system": "rabbit stomach circular smooth muscle", "assay": "Ex vivo rabbit stomach circular smooth muscle, electrical field stimulation", "conditions": "rabbit stomach strips, EFS, 100 nM to 100 μM"}, "[3]": {"system": "human stomach circular smooth muscle", "assay": "Ex vivo human stomach circular smooth muscle, electrical field stimulation", "conditions": "human stomach strips, EFS, 100 nM to 100 μM"}, "rat": {"system": "rat", "assay": "Comparative acute toxicity (behavior) of sc and po galantamine in the rat", "type": "in vivo", "conditions": "individual rats"}, "Sprague Dawley rat": {"system": "Sprague Dawley rat", "assay": "PICA behavior (kaolin consumption) as surrogate for emesis in the rat", "type": "in vivo", "conditions": "for rat kaolin consumption (g) over 24 h post-dose: single subcutaneous dose 3.5 mg base/kg", "description": "This is a well established model for this purpose in the rat (Takeda N et al (1993) 45 817-21).\nOnce determined, a comparison was made of the effects of these doses on kaolin consumption over a 0-96 hour period in 24 h increments.\nIn detail groups of 10 male Sprague Dawley rats were habituated to kaolin for 3 days, then singly housed in grid-bottomed cages and habituated for a further 2 days prior to dosing. On the day of drug administration, the animals were food-deprived for 1 h prior to dosing. […] Access to a weighed quantity of food and kaolin was then restored. Food and kaolin was weighed 24, 48, 72 and 96 h after dosing."}, "ferret": {"system": "ferret", "assay": "Emetic activity (retching and vomiting) in the ferret", "conditions": "for animals dosed that retched / animals dosed that vomited: 20 mg (free base)/kg or similar molar dose, oral; for Time (min) to onset of: Retching / Time (min) to onset of: Vomiting / Total number of individual incidences of: Retching / Total number of individual incidences of: Vomiting: 2 hr. observation"}, "[4]": {"conditions": "20 mg/kg p.o., individual animals, listed as Galantamine HBr, hydrobromide, 20 mg/kg"}, "[5]": {"conditions": "20 mg/kg p.o., individual animals, listed as Galantamine valine ester tartrate, 20 mg/kg"}, "[6]": {"conditions": "40 mg/kg as base p.o., individual animals"}}, "note": "Where “and” joins values, the source holds several entries; their conditions need not be identical. Identical values can stand only once. Entries after “also recorded” stand apart in the source; their conditions may differ. Counter-ions that a name gives are not always drawn.", "data": [{"smiles": "COc1ccc2c3c1O[C@H]1C[C@@H](OC(=O)CCCC(=O)Nc4ccc(C(=O)O)cc4)C=C[C@@]31CCN(C)C2", "note": "[Galantamine [glutaryl-PABA] ester]", "values": [{"measurement": "inhibitory actions toward human acetylcholine esterase (in words)", "setting": "[1]", "result": "significantly less inhibitory actions"}]}, {"smiles": "COc1ccc2c3c1O[C@H]1C[C@@H](O)C=C[C@@]31CCN(C)C2", "note": "[Galantamine, (4aS,6R,8aS)-4a,5,9,10,11,12-hexahydro-3-methoxy-11-methyl-6H-benzofuro[3a,3,2ef][2]benzazepin-6-ol hydrobromide]", "values": [{"measurement": "stimulation of smooth muscle contractions (change in force production)", "setting": "[2]", "result": "evidence of a dose response"}, {"measurement": "stimulation of smooth muscle contractions (change in force production)", "setting": "[3]", "result": "evidence of a dose response"}, {"measurement": "rat behavior", "setting": "rat; 3.5 mg/kg sc, 2 min post dose, hydrobromide", "result": "Rat 1: purposeless chewing, mouth; also recorded: Rat 3: purposeless chewing, mouth"}, {"measurement": "rat behavior", "setting": "rat; 3.5 mg/kg sc, 5 min post-dose, hydrobromide", "result": "Rat 3: As per 2 min; also recorded: Rat 1: purposeless chewing, mouth"}, {"measurement": "rat behavior", "setting": "rat; 3.5 mg/kg sc, 10 min post-dose, hydrobromide", "result": "Rat 1: Tremors, flattened rostral body; also recorded: Rat 3: purposeless chewing, mouth"}, {"measurement": "rat behavior", "setting": "rat; 3.5 mg/kg sc, 20 min post-dose, hydrobromide", "result": "Rat 1: Quiescent, flattened body posture,; also recorded: Rat 3: Some ambulation restored"}, {"measurement": "rat behavior", "setting": "rat; 3.5 mg/kg sc, 30 min post-dose, hydrobromide", "result": "Rat 1: Quiescent, flattened body posture,; also recorded: Rat 3: Some ambulation restored"}, {"measurement": "rat behavior", "setting": "rat; 3.5 mg/kg sc, 45 min post-dose", "result": "Rat 1: food consumption and more"}, {"measurement": "rat behavior", "setting": "rat; 3.5 mg/kg sc, 1 h, hydrobromide", "result": "Rat 1: Normal; also recorded: Rat 3: Normal"}, {"measurement": "rat behavior", "setting": "rat; 40 mg/kg po, 10 min post-dose, hydrobromide", "result": "Rat 6: Quiescent, purposeless; also recorded: Rat 7: Quiescent, purposeless chewing,"}, {"measurement": "rat behavior", "setting": "rat; 40 mg/kg po, 20 min post-dose, hydrobromide", "result": "Ratc 6 as per 10 min + arching; also recorded: Rat 7: grooming + purposeless"}, {"measurement": "rat behavior", "setting": "rat; 40 mg/kg po, 30 min post-dose", "result": "Rat 6: quiescent, purposeless chewing,"}, {"measurement": "rat behavior", "setting": "rat; 40 mg/kg po, 45 min post-dose, hydrobromide", "result": "Rat 6: flattened body posture, chewing,; also recorded: Rat 7: grooming, sawdust consumption"}, {"measurement": "rat behavior", "setting": "rat; 40 mg/kg po, 1 h, hydrobromide", "result": "Rat 6: flattened body posture, tremor; also recorded: Rat 7: Grooming, sawdust"}, {"measurement": "rat behavior", "setting": "rat; 40 mg/kg po, 1.5 h, hydrobromide", "result": "Rat 7: quiet, falttened posture"}, {"measurement": "rat behavior", "setting": "rat; 40 mg/kg po, 2 h, hydrobromide", "result": "Rat 6: much improved; also recorded: Rat 7: much improved"}, {"measurement": "rat behavior", "setting": "rat; 40 mg/kg po, 3 h, hydrobromide", "result": "Rat 6: normal; also recorded: Rat 7: normal"}, {"measurement": "rat kaolin consumption (g) over 24 h post-dose", "setting": "Sprague Dawley rat; Mean", "result": 0.25, "unit": "g"}, {"measurement": "rat kaolin consumption (g) over 24 h post-dose", "setting": "Sprague Dawley rat; individual rats, hydrobromide", "result": "0.67 g and 0.36 g and 0.88 g and 0.08 g and 0.00 g (3×) and 0.21 g and 0.05 g"}, {"measurement": "animals dosed that retched", "setting": "ferret", "result": 55, "unit": "%"}, {"measurement": "animals dosed that vomited", "setting": "ferret", "result": 40, "unit": "%"}, {"measurement": "Time (min) to onset of: Retching", "setting": "ferret; [4]", "result": "6 min (2×) and 33 min and 3 min and 5 min (3×) and >120 min (8×) and 41 min and 11 min and 10 min and 7 min (2×)"}, {"measurement": "Time (min) to onset of: Vomiting", "setting": "ferret; [4]", "result": "41 min and 33 min and 75 min and 5 min (2×) and >120 min (11×) and 37 min and 10 min and 13 min and 6 min"}, {"measurement": "Total number of individual incidences of: Retching", "setting": "ferret; [4]", "result": "22 and 21 and 29 and 18 and 0 (9×) and 31 and 3 (2×) and 6 and 2 and 5 and 13"}, {"measurement": "Total number of individual incidences of: Vomiting", "setting": "ferret; [4]", "result": "1 (6×) and 4 (2×) and 0 (11×) and 2"}]}, {"smiles": "COc1ccc2c3c1O[C@H]1C[C@@H](OC(=O)[C@@H](N)C(C)C)C=C[C@@]31CCN(C)C2", "note": "[Galantamine-(S)-valine ester, galantamine-(S)-valine ester tartrate]", "values": [{"measurement": "animals dosed that retched", "setting": "ferret", "result": 45, "unit": "%"}, {"measurement": "animals dosed that vomited", "setting": "ferret", "result": 18, "unit": "%"}, {"measurement": "Total number of individual incidences of: Retching", "setting": "ferret; 20 mg/kg p.o., Mean", "result": 3.9}, {"measurement": "Time (min) to onset of: Retching", "setting": "ferret; [5]", "result": ">120 min (6×) and 35 min and 11 min and 9 min and 6 min"}, {"measurement": "Time (min) to onset of: Vomiting", "setting": "ferret; [5]", "result": ">120 min (9×) and 44 min and 9 min"}, {"measurement": "Total number of individual incidences of: Retching", "setting": "ferret; [5]", "result": "0 (6×) and 22 and 2 (2×) and 3 and 14"}, {"measurement": "Total number of individual incidences of: Vomiting", "setting": "ferret; [5]", "result": "0 (9×) and 1 and 3"}]}, {"smiles": "COc1ccc2c3c1O[C@H]1C[C@@H](OC(=O)CCC(=O)N[C@H](C(=O)O)C(C)C)C=C[C@@]31CCN(C)C2", "note": "[Galantamine succinyl valine ester]", "values": [{"measurement": "inhibitory actions toward human acetylcholine esterase (in words)", "setting": "[1]", "result": "significantly less inhibitory actions"}, {"measurement": "stimulation of smooth muscle contractions (change in force production)", "setting": "[2]", "result": "complete absence of any such effect"}, {"measurement": "stimulation of smooth muscle contractions (change in force production)", "setting": "[3]", "result": "complete absence of any such effect"}, {"measurement": "Cumulative mean ± SD kaolin consumption", "setting": "Sprague Dawley rat; 11.75 mg base/kg po (galantamine free base content), 24 h", "result": "0.14 ± 0.20", "unit": "g"}, {"measurement": "Cumulative mean ± SD kaolin consumption", "setting": "Sprague Dawley rat; 11.75 mg base/kg po (galantamine free base content), 48 h", "result": "0.29 ± 0.24", "unit": "g"}, {"measurement": "Cumulative mean ± SD kaolin consumption", "setting": "Sprague Dawley rat; 11.75 mg base/kg po (galantamine free base content), 72 h", "result": "0.48 ± 0.27", "unit": "g"}, {"measurement": "Cumulative mean ± SD kaolin consumption", "setting": "Sprague Dawley rat; 11.75 mg base/kg po (galantamine free base content), 96 h", "result": "0.57 ± 0.40", "unit": "g"}, {"measurement": "Cumulative mean ± SD kaolin consumption", "setting": "Sprague Dawley rat; 23.5 mg base/kg po (galantamine free base content), 24 h", "result": "0.31 ± 0.53", "unit": "g"}, {"measurement": "Cumulative mean ± SD kaolin consumption", "setting": "Sprague Dawley rat; 23.5 mg base/kg po (galantamine free base content), 48 h", "result": "0.61 ± 0.69", "unit": "g"}, {"measurement": "Cumulative mean ± SD kaolin consumption", "setting": "Sprague Dawley rat; 23.5 mg base/kg po (galantamine free base content), 72 h", "result": "0.95 ± 0.96", "unit": "g"}, {"measurement": "Cumulative mean ± SD kaolin consumption", "setting": "Sprague Dawley rat; 23.5 mg base/kg po (galantamine free base content), 96 h", "result": "1.25 ± 1.31", "unit": "g"}, {"measurement": "Cumulative mean ± SD kaolin consumption", "setting": "Sprague Dawley rat; 47 mg base/kg po (galantamine free base content), 24 h", "result": "0.15 ± 0.18", "unit": "g"}, {"measurement": "Cumulative mean ± SD kaolin consumption", "setting": "Sprague Dawley rat; 47 mg base/kg po (galantamine free base content), 48 h", "result": "0.40 ± 0.18", "unit": "g"}, {"measurement": "Cumulative mean ± SD kaolin consumption", "setting": "Sprague Dawley rat; 47 mg base/kg po (galantamine free base content), 72 h", "result": "0.63 ± 0.28", "unit": "g"}, {"measurement": "Cumulative mean ± SD kaolin consumption", "setting": "Sprague Dawley rat; 47 mg base/kg po (galantamine free base content), 96 h", "result": "0.91 ± 0.45", "unit": "g"}, {"measurement": "Cumulative mean ± SD kaolin consumption", "setting": "Sprague Dawley rat; 47 mg base/kg po (galantamine free base content), 96 h, listed as GSVE", "result": "0.91 ± 0.45", "unit": "g"}, {"measurement": "Time (min) to onset of: Retching", "setting": "ferret; 40 mg/kg as base p.o., Mean", "result": ">120", "unit": "min"}, {"measurement": "Time (min) to onset of: Vomiting", "setting": "ferret; 40 mg/kg as base p.o., Mean", "result": ">120", "unit": "min"}, {"measurement": "Total number of individual incidences of: Retching", "setting": "ferret; 40 mg/kg as base p.o., Mean", "result": 0}, {"measurement": "Total number of individual incidences of: Vomiting", "setting": "ferret; 40 mg/kg as base p.o., Mean", "result": 0}, {"measurement": "Time (min) to onset of: Retching", "setting": "ferret; [6]", "result": ">120", "unit": "min"}, {"measurement": "Time (min) to onset of: Vomiting", "setting": "ferret; [6]", "result": ">120", "unit": "min"}, {"measurement": "Total number of individual incidences of: Retching", "setting": "ferret; [6]", "result": 0}, {"measurement": "Total number of individual incidences of: Vomiting", "setting": "ferret; [6]", "result": 0}, {"measurement": "retching or vomiting observed (in words)", "setting": "ferret; oral 40 mg galantamine (free base equivs)/kg", "result": "no retching or vomiting at all"}]}]}
